Read-outs that look alike come from different tables or passages of the source.
Columns and labels:
[1] = tested on: HEK293H, HEK293T, H4IIe, MCF7 and SH-SY5Y cells; conditions: for cytotoxicity,median REPBPA,IC10: median IC10 relative to BPA; for IC10,Median (M): median cytotoxicity of all cell lines; for IC10, median: median cytotoxicity over all cell lines
Description: Cell culture conditions and bioassay protocols including response detection are provided in Text S2.1–2.4 and Table S3. − Cell viability was determined from cell confluency using an IncuCyte S3 Live-Cell Analysis System (Sartorius AG, Essen, Germany) before and after exposure, except for SH-SY5Y cells (live–dead staining with Nuclear Green LcS1 and propidium iodide, Abcam, UK). For metabolic activation experiments, cell viability was assessed using the ToxBLAzer DualScreen Kit (Thermo Fisher Scientific) to capture the remaining toxicity in ERα-UAS-bla GripTite after treatment with the aCYP catalyst (details in Text S2.4).
For ARE, the concentration that triggered an induction ratio of 1.5 (ECIR1.5) was used as the benchmark value, as detailed in Text S2.5. IC10 values also served as a threshold for data analysis in all assays; only concentrations below IC10 were considered when deriving EC10 or ECIR1.5.
TR indicates whether the cytotoxicity is triggered by specific toxicity mechanisms (TR ≥ 10) or not (0.1< TR< 10). 3 TR=IC10,baseline/IC10 We measured the cytotoxicity of BPA and its alternatives in HEK293H (PPARγ), HEK293T (ERα), H4IIe (AhR CALUX), MCF7 (ARE/MMP), and differentiated SH-SY5Y cells (Table S6). […]
medium, supplemented with 2% B-27 Supplement and 2 mM GlutaMAX Supplement. SH - SY5Y cells were differentiated with 10 µM all-trans retinoic acid prior to the assay.
S2.2: Cell Seeding and Incubation. For all bioassays, cell suspensions in the respective assay medium were dispensed into each well of 384-well plates using a MultiFlo Dispenser (Biotek, (now Agilent), Winooski, VT, U.S.). After seeding, the plates were incubated at 37° C and 5% CO₂ for […]. The final cell densities and plate types were as follows: Black poly-D-lysine […]
6500 cells/well, ERα: 5000 cells/well. White 384-well plates with a clear bottom (Product No.
NYC, U.S.) for AhR: 3250 cells/well. Black Collagen I coated plates were used (Product No.
S2.3: Chemical Dosing and Assay Analysis Procedures. The dosing procedure and high-throughput assay workflow have been described in detail before. 9 The dosing concentrations […]
Stock solutions were then either added directly to the respective cell culture medium or evaporated under nitrogen, followed by replenishment with fresh medium. The final solvent content in each well was kept below 1% for methanol, 0% for acetonitrile.
Dosing plates were prepared as 11 -step serial dilutions using a Hamilton Microlab Star robotic system (Hamilton, Bonaduz, Switzerland), and chemicals were dosed in duplicates by transferring 10 μL twice from the dosing plates to the cell plates . After quantifying cell confluency as described in S2. 4., the exposed cells were incubated at 37° C and 5% CO₂ for an additional 24 h. All chemicals were tested in all assays with at least three independent […]
S2.4: Cell Viability Measurement s and bioanalytical protocols . The confluency as a measure of cell viability was determined with an IncuCyte S3 Live -Cell Analysis System (Sartorius AG, Essen, Germany). With this method the confluency of cells in a microscopy image are normalized to control wells without cells and compared before and after 24 hours of exposure.
This method has been described previously 13. Cell viability of SH-SY5Y cells was measured […]
propidium iodide (PI, Abcam, Cambridge, U.K.).14 Nuclear Green LCS1 is a membrane-permeable dye that stains the nuclei of all cells, whereas PI only enters cells with compromised membrane integrity (non-viable cells). After staining, live cells show green nuclei without red fluorescence, while dead cells display both green and red nuclear fluorescence due to PI […]
intercalation. Cell viability was calculated as the proportion of green-only nuclei relative to the […]
For experiments with the preceding aCYP activation, ERα cell viability was additionally calculated from the readout of the ToxBLAzer reagent. The ToxBLAzer assay was conducted following the manufacturer's instructions (Thermo Fisher, Waltham, MA, U.S.).13 Fluorescence

[2] = Octanol-water partition constant (log Kow) measurement, Sirius T3 potentiometric log P; assay type: physicochemical; conditions: experimental, this study
Description: Physicochemical properties provide input parameters for the baseline toxicity model. Acidity constants (pK a) and octanol–water partition constants of the neutral species (K ow) were measured with a Sirius T instrument from Pion Inc. (Sussex, UK) (Text S1.2 and Table S1). A detailed description of the pK a and K ow measurements can be found in literature. , […]
S1.2: pKa and log Kow measurements […]
titrator (Pion Inc., Sussex, U.K.). […]
UV absorbance. For log Kow measurement, approximately 1 mg of test chemical was added to a sample vial and the measurement was done automatically via the potentiometric log P protocol. Briefly, each compound is titrated thrice in an immiscible biphasic system of octanol and phosphate buffer solution and pH is continuously recorded. The shift in p Ka -values was used to estimate the log Kow values.2, 3 Data processing was performed with Sirius T3 Refine software (version 2.0.0.0.), and the final p Ka and log Kow values were calculated as the average of three titrations. To ensure reproducibility, measurements were conducted on at least two

Estrogen Receptor ERα = molecular target: T1, Estrogen Receptor ERα (Homo sapiens, UniProt P03372); assay: cell-based; conditions: for EC10, ERα (M): 10% of maximum effect of E2; for Efficacy % / EC10 / REPBPA: This Study; for EC10: ERα; for REPBPA: relative estrogenic potency vs BPA; for EC10, ERα: effect; for log(1/EC10) ERα: input of the ToxPi score, values up to 1.00; for ERα activation: at noncytotoxic concentrations; for SR-ScoreERα: SR-Score, sigma k=1, x=5; for Specificity ratio (SRbaseline) SRERα: against baseline cytotoxicity; for Specificity ratio (SRcytotoxicity) SRERα: against experimental cytotoxicity; for Relative effect potency REPERα: relative to BPA
T1 sequence (P03372 311-547 limits assumed): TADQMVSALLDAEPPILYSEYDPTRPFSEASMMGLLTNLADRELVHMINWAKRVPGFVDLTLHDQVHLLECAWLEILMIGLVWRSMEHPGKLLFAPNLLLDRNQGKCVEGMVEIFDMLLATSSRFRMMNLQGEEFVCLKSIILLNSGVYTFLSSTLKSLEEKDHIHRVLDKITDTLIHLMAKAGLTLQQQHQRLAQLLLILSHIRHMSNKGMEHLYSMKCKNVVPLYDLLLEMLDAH
Method in brief: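 ERα-UAS-bla GripTite and PPARγ-UAS-bla reporter cells were seeded in assay medium with 2% charcoal-stripped FBS and held 24 h at 37 °C before dosing. Viability came from IncuCyte confluency before and after exposure. EC10 used only concentrations below IC10; Emax% is the log-logistic curve maximum relative to the reference chemical.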

[3] = Bioassay ERα, dosing range all, in M
[4] = Bioassay ERα, dosing range all, linear model fit, in M
[5] = Bioassay ERα, dosing range all, log-logistic model fit
[6] = read-out: Emax%ERα, maximum efficacy relative to E2
[7] = Bioassay ERα, dosing range high, in M
[8] = Bioassay ERα, dosing range high, linear model fit, in M
[9] = Bioassay ERα, dosing range high, log-logistic model fit
[10] = Bioassay ERα, dosing range all, linear model fit

Row | Compound | cytotoxicity,median REPBPA,IC10 [1] | IC10,Median (M) [1] | IC10, median [1] [µM] | log Kow used [2] | EC10, ERα (M) (Estrogen Receptor ERα) | EC10, linear transformed (Estrogen Receptor ERα; [3]) | EC10, linear (Estrogen Receptor ERα; [4]) | logEC10 (Estrogen Receptor ERα; [5]) | Efficacy % (Estrogen Receptor ERα) [%] | EC10 (Estrogen Receptor ERα; in M) | REPBPA (Estrogen Receptor ERα) | EC10, ERα (Estrogen Receptor ERα) [µM] | log(1/EC10) ERα (Estrogen Receptor ERα) | SR-ScoreERα (Estrogen Receptor ERα) | other results
1 | Oc1ccc(Cc2ccc(O)cc2)cc1 [BPF, Bis(4-hydroxyphenyl)methane] | 0.17 | 4.09 × 10^–4 M | 409 | 2.71 | 9.95 × 10^–7 M | 9.67E-07 | 1.45E-06 | -6.00 | 60.05 | 9.95E-07 | 3.72E-01 | 0.995 | 0.77 | – | Emax%ERα (Estrogen Receptor ERα; maximum efficacy relative to E2): 60%; Emax (Estrogen Receptor ERα; [6]): 50 to 60%
2 | O=S(=O)(c1ccc(O)cc1)c1ccc(O)cc1 [BPS, 4,4'-Sulfonyldiphenol] | – | 5.61 × 10^–4 M | 561 | 1.97 | 1.43 × 10^–6 M | – | – | – | 65.69 | 1.43E-06 | 2.59E-01 | 1.43 | 0.75 | – | EC10, linear transformed (Estrogen Receptor ERα; [7]): 1.15E-06; EC10, linear (Estrogen Receptor ERα; [8]): 1.20E-06; logEC10 (Estrogen Receptor ERα; [9]): -5.97; EC10, linear transformed (Estrogen Receptor ERα; ERα bioassay, dosing range low, in M): 1.65E-06; EC10, linear (Estrogen Receptor ERα; ERα bioassay, dosing range low, linear model, in M): 1.43E-06; logEC10 (Estrogen Receptor ERα; ERα bioassay, dosing range low, log-logistic model): -5.76; Emax (Estrogen Receptor ERα; [6]): 66%
3 | O=S(=O)(c1ccc(O)cc1)c1ccc(OCc2ccccc2)cc1 [BPS-MPE, 4-[4-(benzyloxy)benzenesulfonyl]phenol] | 0.62 | 1.12 × 10^–4 M | 112 | 4.28 | – | – | – | no effect | – | – | – | – | – | – | EC10, linear (Estrogen Receptor ERα; [10]): no effect; ERα activation (Estrogen Receptor ERα): did not activate ERα at noncytotoxic concentrations
4 | Oc1ccc(Sc2ccc(O)cc2)cc1 [BPT, 4,4'-Thiodiphenol] | 0.74 | 9.51 × 10^–5 M | 95.1 | 3.29 | 7.27 × 10^–7 M | 2.87E-07 | 7.27E-07 | -6.54 | – | 7.27E-07 | 5.09E-01 | 0.727 | 0.78 | 1.00 | –
5 | COC(=O)C(c1ccc(O)cc1)c1ccc(O)cc1 [Bz, Methyl bis(4-hydroxyphenyl)acetate] | 0.19 | 3.73 × 10^–4 M | 373 | 2.06 | 1.06 × 10^–6 M | – | – | – | 32.40 | 1.06E-06 | 3.49E-01 | 1.06 | 0.76 | 1.00 | EC10, linear transformed (Estrogen Receptor ERα; [7]): 1.23E-08; EC10, linear (Estrogen Receptor ERα; [8]): 7.84E-07; logEC10 (Estrogen Receptor ERα; [9]): -6.83; EC10, linear transformed (Estrogen Receptor ERα; Bioassay ERα, dosing range low, in M): 9.90E-07; EC10, linear (Estrogen Receptor ERα; Bioassay ERα, dosing range low, linear model fit, in M): 1.06E-06; logEC10 (Estrogen Receptor ERα; Bioassay ERα, dosing range low, log-logistic model fit): -6.00; SRcytotoxicity (ERα) (Estrogen Receptor ERα; IC10/EC10): 957; Specificity ratio (SRbaseline) SRERα (Estrogen Receptor ERα): 245.73; Specificity ratio (SRcytotoxicity) SRERα (Estrogen Receptor ERα): 956.87; Emax (Estrogen Receptor ERα; read-out: Emax%ERα): 32%; Relative effect potency REPERα (Estrogen Receptor ERα): 0.35
6 | O=C(OCc1ccccc1)c1ccc(O)cc1 [BzPB, Benzyl 4-hydroxybenzoate] | 0.53 | 1.32 × 10^–4 M | 132 | 3.30 | 3.02 × 10^–6 M | 3.07E-06 | 1.96E-06 | -5.52 | 53.46 | 3.02E-06 | 1.23E-01 | 3.02 | 0.70 | 1.00 | Specificity ratio (SRbaseline) SRERα (Estrogen Receptor ERα): 5.49; Specificity ratio (SRcytotoxicity) SRERα (Estrogen Receptor ERα): 13.93; Emax (Estrogen Receptor ERα; read-out: Emax%ERα): 53%; Relative effect potency REPERα (Estrogen Receptor ERα): 0.12
7 | Cc1ccc(S(=O)(=O)NC(=O)Nc2cccc(OS(=O)(=O)c3ccc(C)cc3)c2)cc1 [Pergafast, N-(p-toluenesulfonyl)-N'-(3-(p-toluenesulfonyloxy)phenyl)urea] | 3.67 | 1.91 × 10^–5 M | 19.1 | 4.11 | – | – | – | no effect | – | – | – | – | – | – | EC10, linear (Estrogen Receptor ERα; [10]): no effect; ERα activation (Estrogen Receptor ERα): did not activate ERα at noncytotoxic concentrations
